This passage reports IC50 results from BindingDB's records for patent WO2025049746 (Eikon Therapeutics, 2025).

Assay [1] concerns the target Bifunctional 3'-5' exonuclease/ATP-dependent helicase WRN (Homo sapiens, UniProt Q14191). Nature of the assay: ADP-Glo Kinase Assay. The method, then: ATPase activity was measured using the ADP-Glo Kinase Assay following the manufacturers recommended protocol.
Assay [2] has as its target T1, Bifunctional 3'-5' exonuclease/ATP-dependent helicase WRN [480-1251] (UniProt Q14191).
T1 construct: 480-1251
Nature of the assay: Biochemical Activity Assays.

T1 sequence (Q14191 480-1251): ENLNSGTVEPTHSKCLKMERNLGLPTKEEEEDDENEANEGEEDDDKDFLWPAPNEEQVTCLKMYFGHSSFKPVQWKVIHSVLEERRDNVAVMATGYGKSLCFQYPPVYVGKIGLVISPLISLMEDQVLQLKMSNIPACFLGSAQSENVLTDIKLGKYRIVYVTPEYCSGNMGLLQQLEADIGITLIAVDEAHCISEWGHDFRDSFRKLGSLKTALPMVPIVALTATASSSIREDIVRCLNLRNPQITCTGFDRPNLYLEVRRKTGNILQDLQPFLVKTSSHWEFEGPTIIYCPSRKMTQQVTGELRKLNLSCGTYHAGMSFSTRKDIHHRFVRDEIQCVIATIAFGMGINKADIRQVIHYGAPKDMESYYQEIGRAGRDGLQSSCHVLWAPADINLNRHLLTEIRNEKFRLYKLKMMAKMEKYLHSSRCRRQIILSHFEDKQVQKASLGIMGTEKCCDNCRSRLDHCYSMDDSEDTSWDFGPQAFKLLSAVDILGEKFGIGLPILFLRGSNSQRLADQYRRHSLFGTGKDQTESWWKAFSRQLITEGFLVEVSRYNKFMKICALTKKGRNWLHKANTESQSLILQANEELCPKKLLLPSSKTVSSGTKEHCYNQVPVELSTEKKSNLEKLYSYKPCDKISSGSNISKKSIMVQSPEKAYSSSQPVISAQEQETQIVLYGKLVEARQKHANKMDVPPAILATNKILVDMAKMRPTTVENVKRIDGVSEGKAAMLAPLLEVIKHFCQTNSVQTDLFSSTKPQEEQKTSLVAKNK
Chain of Bifunctional 3'-5' exonuclease/ATP-dependent helicase WRN (Q14191 whole entry): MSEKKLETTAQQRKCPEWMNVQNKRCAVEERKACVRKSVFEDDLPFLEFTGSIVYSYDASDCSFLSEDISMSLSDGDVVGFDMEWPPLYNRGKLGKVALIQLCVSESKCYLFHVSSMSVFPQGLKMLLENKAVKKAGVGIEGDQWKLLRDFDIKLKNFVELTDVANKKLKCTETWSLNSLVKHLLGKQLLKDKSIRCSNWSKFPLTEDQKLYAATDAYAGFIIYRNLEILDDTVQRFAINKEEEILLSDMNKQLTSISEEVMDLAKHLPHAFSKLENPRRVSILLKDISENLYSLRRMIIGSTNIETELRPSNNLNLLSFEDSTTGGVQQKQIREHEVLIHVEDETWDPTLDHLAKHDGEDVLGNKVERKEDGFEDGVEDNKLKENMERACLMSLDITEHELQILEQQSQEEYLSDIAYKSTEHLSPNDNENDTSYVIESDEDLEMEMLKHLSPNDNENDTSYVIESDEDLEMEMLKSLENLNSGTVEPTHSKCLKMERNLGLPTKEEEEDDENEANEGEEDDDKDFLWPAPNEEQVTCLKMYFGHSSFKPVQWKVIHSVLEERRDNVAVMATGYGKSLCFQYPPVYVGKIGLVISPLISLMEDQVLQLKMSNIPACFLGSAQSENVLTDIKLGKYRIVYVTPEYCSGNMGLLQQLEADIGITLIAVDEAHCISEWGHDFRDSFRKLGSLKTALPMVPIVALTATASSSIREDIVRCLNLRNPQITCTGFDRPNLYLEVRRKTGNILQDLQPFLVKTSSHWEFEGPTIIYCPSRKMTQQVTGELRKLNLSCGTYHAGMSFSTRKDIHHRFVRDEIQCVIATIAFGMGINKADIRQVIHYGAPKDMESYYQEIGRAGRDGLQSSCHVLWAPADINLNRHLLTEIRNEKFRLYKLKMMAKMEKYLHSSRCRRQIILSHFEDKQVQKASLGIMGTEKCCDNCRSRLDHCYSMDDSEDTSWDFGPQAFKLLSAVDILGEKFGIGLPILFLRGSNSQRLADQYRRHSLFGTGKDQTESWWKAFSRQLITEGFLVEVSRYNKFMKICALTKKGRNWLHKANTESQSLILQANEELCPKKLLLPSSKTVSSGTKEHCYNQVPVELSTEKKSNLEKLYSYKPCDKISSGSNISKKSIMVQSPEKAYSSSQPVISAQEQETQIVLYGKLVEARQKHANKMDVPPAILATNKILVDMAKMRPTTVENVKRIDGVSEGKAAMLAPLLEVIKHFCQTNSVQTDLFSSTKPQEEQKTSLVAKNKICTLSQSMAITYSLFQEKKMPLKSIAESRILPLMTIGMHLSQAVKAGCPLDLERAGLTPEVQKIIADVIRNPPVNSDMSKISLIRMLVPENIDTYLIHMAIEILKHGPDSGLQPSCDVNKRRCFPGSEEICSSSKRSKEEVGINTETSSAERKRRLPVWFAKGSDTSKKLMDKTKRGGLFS

For `Cc1ncnc(C(=O)N2CCN(c3c4n(c5nc(-c6ccc7c(c6)COC7(C)C)nn5c3=O)[C@H](C(=O)Nc3ccc(C(F)(F)F)cc3Cl)C[C@@H]4C)[C@H]3CC[C@@H]32)c1O` [WO2025049746, Example 468], the IC50 in assay [1] was 38.1 nM; in assay [2], 42.4 nM.

As to `Cc1ncnc(C(=O)N2CCN(c3c4n(c5nc(-c6ccc7c(c6)COC7(C)C)nn5c3=O)[C@H](C(=O)Nc3ccc(C(F)(F)F)cc3Cl)C[C@H]4C)CC2)c1O` [WO2025049746, Example 469], the IC50 stood at 25.5 nM in assay [1] and 27.5 nM in assay [2].

Regarding `Cc1ncnc(C(=O)N2CCN(c3c4n(c5nc(-c6ccc7c(c6)COC7(C)C)nn5c3=O)[C@@H](C(=O)Nc3ccc(C(F)(F)F)cc3Cl)C[C@H]4C)CC2)c1O` [WO2025049746, Example 470], the IC50 in assay [1] came out at 32.4 nM; in assay [2] it was 34.6 nM.

Turning to `Cc1ncnc(C(=O)N2CCN(c3c4n(c5nc(-c6ccc7c(c6)COC7(C)C)nn5c3=O)[C@H](C(=O)Nc3ccc(C(F)(F)F)cc3Cl)C[C@@H]4C)CC2)c1O` [WO2025049746, Example 471], the IC50 came out at 1790 nM in assay [1] and 1810 nM in assay [2].

As to `Cc1ncnc(C(=O)N2CCN(c3c4n(c5nc(-c6ccc7c(c6)COC7(C)C)nn5c3=O)[C@@H](C(=O)Nc3ccc(C(F)(F)F)cc3Cl)C[C@@H]4C)CC2)c1O` [WO2025049746, Example 472], the IC50 in assay [1] was 3740 nM; in assay [2], 4940 nM.
